Laboratory results reported in patent US5141953A, “Purpuromycin for the treatment of vaginal infections and pharmaceutical dosage forms for said use” (Gruppo Lepetit S.p.A., priority 1989, dated 1992).
In brackets after ≈: the same amount, converted by molar mass. Read-outs that look alike come from different tables or passages of the source.

Assays:
Gardnerella vaginalis [1] = conditions: cited from earlier work
Candida albicans = conditions: cited from earlier work
Gardnerella vaginalis [2] = assay: MIC against Gardnerella vaginalis (ATCC 14018 and 11 clinical isolates), standard two-fold dilution; assay type: cell-based; conditions: for NUMBER OF STRAINS WITH MIC OF 8: MIC 8 mcg/ml; for NUMBER OF STRAINS WITH MIC OF 16: MIC 16 mcg/ml; for NUMBER OF STRAINS WITH MIC OF 32: MIC 32 mcg/ml; for NUMBER OF STRAINS WITH MIC OF 64: MIC 64 mcg/ml; for NUMBER OF STRAINS WITH MIC OF 4: MIC 4 mcg/ml
Procedure: The strains were grown on Casman medium (Difco) plus 5% (v/v) whole rabbit blood and 0.15 (v/v) lysed rabbit blood. Inoculum size: approximately 10^4 colony forming units per spot. Incubation in an anaerobic hood: 48 hours at 37° C.

[3] = test system: Candida albicans strain SKF 2270; assay: Topical treatment of yeast vaginal infection in ovariectomized rats; assay type: in vivo, rat; conditions: topical intravaginal; for Mean log10 CFU/smear sample ± SD: twice daily for three days, untreated 3.43 ± 0.55, vehicle 3.74 ± 0.60
Procedure: The effectiveness of purpuromycin in the topical treatment of yeast vaginal infection was also tested in ovariectomized rats (Charles River) treated subcutaneously with 4 mg of estradiol benzoate approximately two weeks after ovariectomy. Five days later they were inoculated intravaginally with approximately 5×10^6 colony forming units (CFU) of Candida albicans strain SKF 2270 in 25 microliters of Nutrient Broth (no.2, Oxoid) containing 15% (vol/vol) of glycerol. Topical intravaginal therapy was twice daily for three days, starting one day after infection, with 100 microliters of a purpuromycin suspension in a mixture of 10:90 DMSO-polyethylene glycol 400, corresponding to 2 or 5 mg/rat/treatment. The day after the last treatment, vaginal smear samples (calibrated 10 microliter loops) were diluted and plated for viable organism counts on Sabouraud agar (Difco). Each group contained 10 animals.

Solubility = assay type: physicochemical
[4] = test system: fungi, including filamentous fungi (e.g., Trichophyton mentagrophytes) and yeasts e.g., Candida albicans; conditions: in vitro; cited from earlier work
Gram-negative bacteria = conditions: in vitro; cited from earlier work
Gram-positive bacteria = conditions: in vitro; cited from earlier work
[5] = test system: Bacteroides fragilis ATCC 23745; assay: MIC against Bacteroides fragilis, two-fold dilution method; assay type: cell-based; conditions: ATCC23745, anaerobic, 48 hours at 37° C., Wilkins-Chalgren broth, approximately 10^4 CFU/ml
Procedure: A further experiment representative of the activity of purpuromycin against other anaerobic bacteria which are usually associated with infectious vaginitis utilized Bacteroides fragilis ATCC […] as the test microorganism. The experiment was carried out by the two-fold dilution method in microliter plates using Wilkins-Chalgren broth (Difco).
Inoculum size: approximately 10^4 colony forming units/ml. Incubation in an anerobic hood: 48 hours at 37° C. Purpuromycin was dissolved in DMSO and was added to the culture medium as above.

yeasts = conditions: cited from earlier work
Trichomonas vaginalis = conditions: cited from earlier work
[6] = 12 strains tested, anaerobic, 48 hours at 37° C.
[7] = MIC >128 mcg/ml, 12 strains tested, anaerobic, 48 hours at 37° C.

CC1=C(C(=O)O)N2C(=O)[C@@H](NC(=O)[C@H](N)c3ccccc3)[C@H]2SC1 [cefalexin]
activity against Gardnerella vaginalis (Gardnerella vaginalis [1]): active

OC(Cn1cncn1)(Cn1cncn1)c1ccc(F)cc1F [fluconazole]
effectiveness against Candida albicans infections (Candida albicans): effective

CN[C@@H]1[C@H](O)[C@H](NC)[C@H]2O[C@@]3(O)C(=O)C[C@@H](C)O[C@H]3O[C@@H]2[C@H]1O [spectinomycin]
activity against Gardnerella vaginalis (Gardnerella vaginalis [1]): active

O=C(Cc1cccs1)N[C@@H]1C(=O)N2C(C(=O)[O-])=C(C[n+]3ccccc3)CS[C@H]12 [cephaloridine]
activity against Gardnerella vaginalis (Gardnerella vaginalis [1]): active

CCC[C@@H]1C[C@@H](C(=O)N[C@@H]([C@H]2O[C@H](SC)[C@H](O)[C@@H](O)[C@H]2O)[C@H](C)Cl)N(C)C1 [clindamycin]
activity against Gardnerella vaginalis (Gardnerella vaginalis [1]): active

COC(=O)c1cc2cc3c(c(O)c2c(=O)o1)OC1(Cc2c(O)c4c(c(O)c2O1)C(=O)C(OC)=CC4=O)CC3O (centres unmarked) [Purpuromycin]
MIC (Gardnerella vaginalis [2]; 48 h, all 12 Gardnerella vaginalis strains, read-out: concentration that inhibits the growth of all tested strains): 8 mg/L (≈ 14.9 µM)
NUMBER OF STRAINS WITH MIC OF 8 (Gardnerella vaginalis [2]; [6]): 12 strains
activity on strains resistant to metronidazole, nystatin and miconozole (Gardnerella vaginalis [2]; resistant strains): active
Mean log10 CFU/smear sample ± SD ([3]; 2 mg/rat/treatment): 2.00 ± 0.75 log10 CFU/smear sample
Mean log10 CFU/smear sample ± SD ([3]; 5 mg/rat/treatment, *P <0.01 vs group 1 controls): 2.28 ± 0.78 log10 CFU/smear sample
numbers of viable yeast cells/sample ([3]; 2 or 5 mg/rat/treatment): significantly reduced
solubility in lower alkanols (Solubility; lower alkanols): practically unsoluble
solubility in water (Solubility; water): practically unsoluble
activity against fungi [4]: active
activity against Gram-negative bacteria (Gram-negative bacteria): active
activity against Gram-positive bacteria (Gram-positive bacteria): active
MIC [5]: 0.25 mg/L (≈ 0.464 µM)

gentamicin
activity against Gardnerella vaginalis (Gardnerella vaginalis [1]): active

CC(=O)N1CCN(c2ccc(OCC3COC(Cn4ccnc4)(c4ccc(Cl)cc4Cl)O3)cc2)CC1 (centres unmarked) [Ketoconazole]
effectiveness against Candida albicans infections (Candida albicans): effective

Clc1ccccc1C(c1ccccc1)(c1ccccc1)n1ccnc1 [Clotrimazole]
NUMBER OF STRAINS WITH MIC OF 8 (Gardnerella vaginalis [2]; [6]): 2 strains
NUMBER OF STRAINS WITH MIC OF 16 (Gardnerella vaginalis [2]; [6]): 1 strains
NUMBER OF STRAINS WITH MIC OF 32 (Gardnerella vaginalis [2]; [6]): 2 strains
NUMBER OF STRAINS WITH MIC OF 64 (Gardnerella vaginalis [2]; [6]): 5 strains
NUMBER OF STRAINS WITH MIC OF >128 (Gardnerella vaginalis [2]; [7]): 2 strains
effectiveness against Candida albicans infections (Candida albicans): effective

C[C@@H]1[C@H](O)[C@@H](C)/C=C/C=C/CC/C=C/C=C/C=C/C=C/C(O[C@H]2O[C@H](C)[C@@H](O)[C@H](N)[C@@H]2O)CC2O[C@](O)(CC(O)C(O)CCC(O)CC(O)CC(O)CC(=O)O[C@H]1C)CC(O)C2C(=O)O (some centres unmarked) [Nystatin]
NUMBER OF STRAINS WITH MIC OF >128 (Gardnerella vaginalis [2]): 12 strains
effectiveness against Candida albicans infections (Candida albicans): effective

CC[C@H]1OC(=O)[C@H](C)[C@@H](O[C@H]2C[C@@](C)(OC)[C@@H](O)[C@H](C)O2)[C@H](C)[C@@H](O[C@@H]2O[C@H](C)C[C@H](N(C)C)[C@H]2O)[C@](C)(O)C[C@@H](C)C(=O)[C@H](C)[C@@H](O)[C@]1(C)O [erythromycin]
activity against Gardnerella vaginalis (Gardnerella vaginalis [1]): active

C[C@@H]1[C@H](O)[C@@H](C)/C=C/C=C/C=C/C=C/C=C/C=C/C=C/[C@H](O[C@@H]2O[C@H](C)[C@@H](O)[C@H](N)[C@@H]2O)C[C@@H]2O[C@](O)(C[C@@H](O)C[C@@H](O)[C@H](O)CC[C@@H](O)C[C@@H](O)CC(=O)O[C@H]1C)C[C@H](O)[C@H]2C(=O)O [Amphotericin B]
effectiveness against Candida albicans infections (Candida albicans): effective

CN(C)c1ccc(C(=C2C=CC(=[N+](C)C)C=C2)c2ccc(N(C)C)cc2)cc1 [gentian violet]
effectiveness against Candida albicans infections (Candida albicans): effective

Cc1ncc([N+](=O)[O-])n1CCO [Metronidazole]
NUMBER OF STRAINS WITH MIC OF 4 (Gardnerella vaginalis [2]; [6]): 1 strains
NUMBER OF STRAINS WITH MIC OF 8 (Gardnerella vaginalis [2]; [6]): 3 strains
NUMBER OF STRAINS WITH MIC OF 16 (Gardnerella vaginalis [2]; [6]): 4 strains
NUMBER OF STRAINS WITH MIC OF 64 (Gardnerella vaginalis [2]; [6]): 1 strains
NUMBER OF STRAINS WITH MIC OF 128 (Gardnerella vaginalis [2]; MIC 128 mcg/ml, 12 strains tested, anaerobic, 48 hours at 37° C.): 3 strains
activity against yeasts (yeasts): not active
activity against Gardnerella vaginalis (Gardnerella vaginalis [1]): active
activity against Trichomonas vaginalis (Trichomonas vaginalis): active

CCS(=O)(=O)CCn1c([N+](=O)[O-])cnc1C [tinidazole]
activity against Trichomonas vaginalis (Trichomonas vaginalis): active

CC1(C)S[C@@H]2[C@H](NC(=O)[C@H](N)c3ccccc3)C(=O)N2[C@H]1C(=O)O [ampicillin]
activity against Gardnerella vaginalis (Gardnerella vaginalis [1]): active

O=C(N[C@H](CO)[C@H](O)c1ccc([N+](=O)[O-])cc1)C(Cl)Cl [chloramphenicol]
activity against Gardnerella vaginalis (Gardnerella vaginalis [1]): active

CO[C@@]1(NC(=O)Cc2cccs2)C(=O)N2C(C(=O)O)=C(COC(N)=O)CS[C@@H]21 [cefoxitin]
activity against Gardnerella vaginalis (Gardnerella vaginalis [1]): active

CC1(C)S[C@@H]2[C@H](NC(=O)Cc3ccccc3)C(=O)N2[C@H]1C(=O)O [penicillin G]
activity against Gardnerella vaginalis (Gardnerella vaginalis [1]): active

candicidin
effectiveness against Candida albicans infections (Candida albicans): effective

Clc1ccc(COC(Cn2ccnc2)c2ccc(Cl)cc2Cl)c(Cl)c1 (centres unmarked) [Miconazole]
MIC (Gardnerella vaginalis [2]; Gardnerella vaginalis, strains resistant to the agent, read-out: MIC (on resistant strains)): 128 mg/L (≈ 308 µM)
NUMBER OF STRAINS WITH MIC OF 4 (Gardnerella vaginalis [2]; [6]): 1 strains
NUMBER OF STRAINS WITH MIC OF 8 (Gardnerella vaginalis [2]; [6]): 7 strains
NUMBER OF STRAINS WITH MIC OF 32 (Gardnerella vaginalis [2]; [6]): 2 strains
NUMBER OF STRAINS WITH MIC OF >128 (Gardnerella vaginalis [2]; [7]): 2 strains
effectiveness against Candida albicans infections (Candida albicans): effective

CN(C)C1C(=O)C(C(N)=O)=C(O)C2(O)C(=O)C3=C(O)c4c(O)cccc4C(C)(O)C3CC12 (centres unmarked) [tetracycline]
activity against Gardnerella vaginalis (Gardnerella vaginalis [1]): active

Clc1ccc(COC(Cn2ccnc2)c2ccc(Cl)cc2Cl)cc1 (centres unmarked) [econozole]
effectiveness against Candida albicans infections (Candida albicans): effective

Cc1cc(NS(=O)(=O)c2ccc(N)cc2)no1 [sulfamethoxazole]
activity against Gardnerella vaginalis (Gardnerella vaginalis [1]): active
